# Assays:
# [1] = system: LXRα/β; experiment: EMSA, binding of LXRα/β to probe for the LXRE in the α-synuclein promoter; format: cell-based, human; conditions: for binding of LXRα/β to the exogenous DNA sequence containing the LXRE: nuclear extracts of treated SH-SY5Y, treatment alone vs control
# [2] = target: T1, LXRα (Homo sapiens, UniProt Q13133); experiment: ChIP, LXRα binding to the LXRE in the α-synuclein promoter; format: cell-based; conditions: SH-SY5Y; for LXRα binding to the LXRE on the α-synuclein promoter: treatment alone vs control
# T1 construct: endogenous in cells; host or cells: SH-SY5Y human neuroblastoma cells
# T1 sequence (Q13133 1-447): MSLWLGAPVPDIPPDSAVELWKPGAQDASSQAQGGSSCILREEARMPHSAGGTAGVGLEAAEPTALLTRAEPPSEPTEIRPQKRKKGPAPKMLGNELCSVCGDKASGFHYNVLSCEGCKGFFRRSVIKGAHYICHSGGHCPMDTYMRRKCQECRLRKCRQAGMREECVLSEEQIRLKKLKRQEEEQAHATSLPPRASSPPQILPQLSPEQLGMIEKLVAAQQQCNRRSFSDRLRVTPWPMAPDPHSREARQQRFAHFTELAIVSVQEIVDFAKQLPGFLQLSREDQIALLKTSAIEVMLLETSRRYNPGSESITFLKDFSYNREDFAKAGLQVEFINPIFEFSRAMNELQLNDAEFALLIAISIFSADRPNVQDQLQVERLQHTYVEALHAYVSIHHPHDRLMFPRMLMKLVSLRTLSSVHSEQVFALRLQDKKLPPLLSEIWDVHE
# Protocol: Human neuroblastoma SH-SY5Y cells were grown in DMEM/F12 medium containing 10% fetal bovine serum (FBS) and 1% antibiotic/antimycotic mix. Cells were maintained at 37° C. in a saturated humidity atmosphere containing 95% air and 5% CO2.
# ChIP analysis was performed to evaluate the extent of ERα/ERβ and LXRα/LXRβ binding to the DNA elements in the TH promoter and α-synuclein promoter regions respectively using “SimpleChIP™ Enzymatic Chromatic IP kit” from Cell Signaling (Boston, Mass.).
# Briefly, cells from each treatment group (3×10^6 cells) were washed with PBS, trypsinized, centrifuged at 5000 g. The pellet containing the cells was further washed with PBS and cross-linked using 37% formaldehyde for 15 min followed by the addition of glycine solution to cease the cross-linking reaction.
# The cells were washed with 4× volumes of 1×PBS and centrifuged at ˜220 g for 5 min. The pellet was resuspended and incubated for 10 min in 5 ml of tissue lysis buffer containing DTT and protease and phosphatase inhibitors. The subsequent steps to isolate the cross-linked chromatin were performed according to the manufacturer's protocol.
# The cross-linked chromatin from each sample was apportioned into four equal parts. One quarter of the cross-linked chromatin was set aside as “input.” One quarter of the cross-linked chromatin from each sample was incubated with 5 μg of anti-ERα mouse antibody (Cell Signaling, Boston, Mass.) and 5 μg of anti-ERβ rabbit antibody (Upstate, Bedford, Mass.), or 5 μg of anti-LXRα rabbit antibody (Abcam, Cambridge, Mass.) and 5 μg of anti-LXRβ mouse antibody (Abcam, Cambridge, Mass.), while the remaining one quarter of the cross-linked chromatin from each sample was incubated with 5 μg of normal Rabbit IgG to serve as negative control. […]
# The crude DNA extract was eluted and then washed several times with wash buffer containing ethanol (provided with the kit) followed by purification with the use of DNA spin columns provided by the manufacturer. […] The DNA fragment size was determined by electrophoresis on a 1.2% agarose FlashGel^R system (Lonza, Rockland, Me.).
# The relative abundance of the ERα or ERβ antibody precipitated chromatin containing the ERE in the TH promoter region and LXRα or LXRβ antibody precipitated chromatin containing the LXRE in the α-synuclein promoter region was determined by qPCR using an iQ SYBR Green Supermix kit following the manufacturer's instructions (BioRad, Hercules, Calif.) and sequence specific primers (See Table 1 above). […] The fold enrichment of the ERE in the TH promoter region and LXRE in the α-synuclein promoter region was calculated using the ΔΔCt method (K. J. Livak et al., Methods, 25, 402 (2001)) which normalizes ChIP Ct values of each sample to the % input and background.
# [3] = system: ARPE-19 cells; experiment: ROS levels in ARPE-19 cells; format: cell-based; conditions: ARPE-19, 24 h
# [4] = system: ERα/β; experiment: EMSA, binding of nuclear ER to probe for the ERE half site in the TH promoter; format: cell-based, human; conditions: nuclear extracts of treated SH-SY5Y, treatment alone vs control
# [5] = system: TH promoter; experiment: Dual-luciferase TH promoter assay; format: cell-based, human; conditions: SH-SY5Y transfected with TH promoter-luciferase, 24 h
# Protocol: Constructs encoding ERE and TH promoter conjugated to the firefly luciferase gene were used in the study. Human neuroblastoma SH-SY5Y cells were plated in 96-well plates at a density of 2×10^4 cells/well. The cells were transfected when 80% confluent with 0.25 μg of either ERE-firefly Luciferase reporter construct, LXRE-firefly Luciferase reporter construct, or TH promotor-firefly Luciferase promoter construct. Respective non-inducible reporter constructs containing constitutively expressing Renilla luciferase were used as negative internal controls. Constitutively expressing GFP constructs were used as positive control to determine transfection efficiency. Cells were incubated for 24 hours with Opti-MEM serum free medium (Invitrogen, Carlsbad, Calif.) containing the reporter constructs dissolved in transfection reagent. After 24 hours the medium was changed and the cells were incubated in normal DMEM/F12 medium containing 10% FBS and cells were treated with the different treatment regimens. The cells were treated in triplicate and harvested 24 hours later and subjected to dual-luciferases assay. The dual-luciferase assay was performed using a “Dual-Luciferase Reporter Assay System” from Promega (Madison, Wis.). The luminescence recorded is expressed as Relative Luminescence Units (RLU) and normalized to per mg protein. Unit value was assigned to control and the magnitude of differences among the samples is expressed relative to the unit value of control cells.
# [6] = system: TNF-α; experiment: TNF-α levels in ARPE-19 cells; format: cell-based; conditions: ARPE-19, 24 h, 10 μM, alone vs control
SMILES,27-OHC-induced increase in LXRα/β binding to the LXRE consensus motif ([1]; co-treatment with 27-OHC),binding of LXRα/β to the exogenous DNA sequence containing the LXRE [1],LXRα binding to the LXRE on the α-synuclein promoter [2],"27-OHC-induced increase in ROS levels ([3]; co-treatment with 27-OHC, all at 10 μM)",binding of nuclear ER to the DNA probe corresponding to the ERE-half site on the TH promoter [4],reduction of TH promoter activity [5] [fold],"reactive oxygen species (ROS) levels ([3]; 10 μM, alone vs control)",TNF-α levels [6],LXRα binding to the LXRE in the α-synuclein promoter ([2]; in combination with 27-OHC)
"CC(C)CCC[C@@H](C)[C@H]1CC[C@H]2[C@@H]3C[C@@H]4O[C@@]45C[C@@H](OS(=O)(=O)O)CC[C@]5(C)[C@H]3CC[C@]12C [ECHS, 5α,6α-epoxycholesterol-3-sulfate]",mitigates,decreased,did not significantly attenuate,reduced,–,–,–,–,–
"C[C@@H](CO)CCC[C@@H](C)[C@H]1CC[C@H]2[C@@H]3CC=C4C[C@@H](O)CC[C@]4(C)[C@H]3CC[C@]12C [27-OHC, 27-hydroxycholesterol]",–,increases,no significant augmentation,–,lower binding,~4,increases,increases,–
"Cl.O=C(O)Cc1cccc(OCCCN(Cc2cccc(C(F)(F)F)c2Cl)CC(c2ccccc2)c2ccccc2)c1 [GW3965, 3-[3-[N-(2-Chloro-3-trifluoromethylbenzyl)-(2,2-diphenylethyl)amino]propyloxy]phenylacetic acid hydrochloride]",–,–,did not elicit any increase,–,–,–,–,–,did not elicit any increase
